Test system: 422866-222-R5-J1-PDC complex spheroids viability
Test: Anticancer human tumor 422866-222-R5-J1-PDC patient-derived pancreatic adenocarcinoma cell line growth inhibition [RAS]
Conditions: for IC50: curve of first compound; for viability, T/C: stronger effect = lower value
Outline: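 Tumour cells grown as complex spheroids with HUVEC endothelial cells and mesenchymal stem cells, treated with RAS pathway inhibitor combinations. Each agent spans half-log steps from near clinical Cmax, or 10 microM where Cmax is unknown.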

[1] = second compound 0.0316 µM, first compound 0.0316 µM
[2] = second compound 0.0316 µM, first compound 0.1 µM
[3] = second compound 0.0316 µM, first compound 0.316 µM
[4] = second compound 0.0316 µM, first compound 1 µM
[5] = second compound 0.1 µM, first compound 0.0316 µM
[6] = second compound 0.1 µM, first compound 0.1 µM
[7] = second compound 0.1 µM, first compound 0.316 µM
[8] = second compound 0.1 µM, first compound 1 µM
[9] = second compound 0.316 µM, first compound 0.0316 µM
[10] = second compound 0.316 µM, first compound 0.1 µM
[11] = second compound 0.316 µM, first compound 0.316 µM
[12] = second compound 0.316 µM, first compound 1 µM
[13] = second compound 1 µM, first compound 0.0316 µM
[14] = second compound 1 µM, first compound 0.1 µM
[15] = second compound 1 µM, first compound 0.316 µM
[16] = second compound 1 µM, first compound 1 µM
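Further: spheroids exposed to compounds for 7 days.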
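Wherever viability, T/C is given: 100% = DMSO vehicle control viability.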

`CC(C)NCC(C(=O)N1CCN(c2ncnc3c2C(C)CC3O)CC1)c1ccc(Cl)cc1` (centres undefined) + C#Cc1c(F)ccc2cc(O)cc(-c3ncc4c(N5CC6CCC(C5)N6)nc(OCC56CCCN5CC(F)C6)nc4c3F)c12 gave an IC50 (second compound 0.0316 µM) of over 10000 nM, an IC50 (second compound 0.1 µM) of over 10000 nM and an IC50 (second compound 0.316 µM) of over 10000 nM. The IC50 (second compound 1 µM) was under 31.6 nM, the IC50 (second compound 3.16 µM) was under 31.6 nM and the IC50 (second compound 10 µM) was under 31.6 nM. The viability, T/C [1] was 87.4%, the viability, T/C [2] was 79% and the viability, T/C [3] was 88%. The viability, T/C [4] was 100%, the viability, T/C (second compound 0.0316 µM, first compound 3.16 µM) was 103% and the viability, T/C (second compound 0.0316 µM, first compound 10 µM) was 121%. For the same compound, the viability, T/C [5] was 86.9%, the viability, T/C [6] was 64.4% and the viability, T/C [7] was 78.3%. The viability, T/C [8] was 74.7%, the viability, T/C (second compound 0.1 µM, first compound 3.16 µM) was 94.2% and the viability, T/C (second compound 0.1 µM, first compound 10 µM) was 109%. For the same compound, the viability, T/C [9] was 60.3%, the viability, T/C [10] was 46.1% and the viability, T/C [11] was 58.5%. The viability, T/C [12] was 69.9%, the viability, T/C (second compound 0.316 µM, first compound 3.16 µM) was 81.8% and the viability, T/C (second compound 0.316 µM, first compound 10 µM) was 85.2%. It also gave a viability, T/C [13] of 39.9%, a viability, T/C [14] of 35.3% and a viability, T/C [15] of 38.9%. The viability, T/C [16] was 48.6%, the viability, T/C (second compound 1 µM, first compound 3.16 µM) was 66.5% and the viability, T/C (second compound 1 µM, first compound 10 µM) was 58.9%. For the same compound, the viability, T/C (second compound 3.16 µM, first compound 0.0316 µM) was 25.6%, the viability, T/C (second compound 3.16 µM, first compound 0.1 µM) was 24.3% and the viability, T/C (second compound 3.16 µM, first compound 0.316 µM) was 19.6%. It also gave a viability, T/C (second compound 3.16 µM, first compound 1 µM) of 29.4%, a viability, T/C (second compound 3.16 µM, first compound 3.16 µM) of 38.4% and a viability, T/C (second compound 3.16 µM, first compound 10 µM) of 40.9%. It also gave a viability, T/C (second compound 10 µM, first compound 0.0316 µM) of 17.3%, a viability, T/C (second compound 10 µM, first compound 0.1 µM) of 19% and a viability, T/C (second compound 10 µM, first compound 0.316 µM) of 14.6%. It also gave a viability, T/C (second compound 10 µM, first compound 1 µM) of 12%, a viability, T/C (second compound 10 µM, first compound 3.16 µM) of 18.8% and a viability, T/C (second compound 10 µM, first compound 10 µM) of 18.8%.

`CCN1CCN(Cc2ccc(Nc3ncc(F)c(-c4cc(F)c5nc(C)n(C(C)C)c5c4)n3)nc2)CC1` + C=CC(=O)N1CCN(c2nc(OCC3CCCN3C)nc3c(F)c(-c4nc(N)cc(C)c4C(F)(F)F)c(Cl)cc23)C(C)C1 gave an IC50 (second compound 0.00316 µM) of under 3.16 nM, an IC50 (second compound 0.01 µM) of under 3.16 nM and an IC50 (second compound 0.0316 µM) of under 3.16 nM. For the same compound, the IC50 (second compound 0.1 µM) was under 3.16 nM, the IC50 (second compound 0.316 µM) was under 3.16 nM and the IC50 (second compound 1 µM) was under 3.16 nM. For the same compound, the viability, T/C (second compound 0.00316 µM, first compound 0.00316 µM) was 25.2%, the viability, T/C (second compound 0.00316 µM, first compound 0.01 µM) was 32.4% and the viability, T/C (second compound 0.00316 µM, first compound 0.0316 µM) was 26.4%. For the same compound, the viability, T/C (second compound 0.00316 µM, first compound 0.1 µM) was 21%, the viability, T/C (second compound 0.00316 µM, first compound 0.316 µM) was 31.8% and the viability, T/C (second compound 0.00316 µM, first compound 1 µM) was 36.3%. For the same compound, the viability, T/C (second compound 0.01 µM, first compound 0.00316 µM) was 25.3%, the viability, T/C (second compound 0.01 µM, first compound 0.01 µM) was 24.6% and the viability, T/C (second compound 0.01 µM, first compound 0.0316 µM) was 24.8%. It also gave a viability, T/C (second compound 0.01 µM, first compound 0.1 µM) of 23.3%, a viability, T/C (second compound 0.01 µM, first compound 0.316 µM) of 25.8% and a viability, T/C (second compound 0.01 µM, first compound 1 µM) of 30.3%. For the same compound, the viability, T/C (second compound 0.0316 µM, first compound 0.00316 µM) was 22.7%, the viability, T/C (second compound 0.0316 µM, first compound 0.01 µM) was 22.1% and the viability, T/C [1] was 22.5%. It also gave a viability, T/C [2] of 18.5%, a viability, T/C [3] of 27.8% and a viability, T/C [4] of 30.5%. It also gave a viability, T/C (second compound 0.1 µM, first compound 0.00316 µM) of 24.4%, a viability, T/C (second compound 0.1 µM, first compound 0.01 µM) of 22.2% and a viability, T/C [5] of 21%. It also gave a viability, T/C [6] of 20.7%, a viability, T/C [7] of 24.5% and a viability, T/C [8] of 31%. It also gave a viability, T/C (second compound 0.316 µM, first compound 0.00316 µM) of 18.9%, a viability, T/C (second compound 0.316 µM, first compound 0.01 µM) of 20.2% and a viability, T/C [9] of 20.3%. For the same compound, the viability, T/C [10] was 21.7%, the viability, T/C [11] was 27.3% and the viability, T/C [12] was 30.4%. It also gave a viability, T/C (second compound 1 µM, first compound 0.00316 µM) of 22.7%, a viability, T/C (second compound 1 µM, first compound 0.01 µM) of 20.9% and a viability, T/C [13] of 23.2%. It also gave a viability, T/C [14] of 21.2%, a viability, T/C [15] of 24.9% and a viability, T/C [16] of 37.9%.

Source: PubChem BioAssay AID2060901 (Molecular Pharmacology Branch, DTP, NCI, 2025)
